Measurements: patent US9290529B2, “Carbonic anhydrase inhibitors and method of their production” (USTAV ORGANICKE CHEMIE A BIOCHEMIE AKADEMIE VED CESKE …, priority 2011, dated 2016)

Assays:
[1] = target: T1, human carbonic anhydrase II (hCA II) (Homo sapiens, UniProt P00918); assay: Colorimetric carbonic anhydrase inhibition assay (CO2 hydration, phenol red), hCA II; assay type: biochemical; conditions: 0° C., HEPES pH 7.0
T1 construct: purchased Sigma Aldrich C6165
Experimental: (§1) The compounds were assayed for inhibition activity of two isoforms of human carbonic anhydrase: hCA II and hCA IX. The human carbonic anhydrase II (HCA II) was purchased from Sigma Aldrich (Cat. No. C6165) in the form of lyophilized protein, which was dissolved before use in 10 mmol·l^−1 HEPES pH 7.0 to a concentration of 300 μmol·l^−1 and further diluted as required. Human carbonic anhydrase IX (HCA IX) was prepared by recombinant expression system in insect (Drosophila expression system, Invitrogen). […] This protein was further purified from media by chelating chromatography carrier His-Select Nickel Affinity Gel (Sigma, Cat No. P6611) and gel chromatography (Superdex 200 GL 30/300, GE Healthcare) according to the manufacturer's recommendations.
(§2) The principle of the method is based on measuring the rate of acidification of the solution that is observed as the color-shift of the acid-base-indicator (fenol red). The reaction was conducted in a glass tube placed in an ice bath (0° C., all stock solutions and enzymes were kept at the same temperature). […] This was followed by a CO2 saturation (stream flow 50 ml/min.) using a needle (18 G) up to color transition of fenol-red from red to yellow (typically 60 seconds by default). […] End point of reaction was determined by visual comparison with reference tube containing acid-base indicator (0.01% (wt./vol.) Fenol-red) and the pH adjusted to 7.0. […] Molar activity was calculated according to the formula:
(§3) [formula] where tB is the time of negative control without enzyme and tS is the time measured with an enzyme sample (and inhibitor), nprot is the number of moles of protein present in the sample. The value of IC50 for the inhibitor concentration corresponds inhibitor contraction required to decrease the specific activity to half of the value of non-inhibited enzyme. Selectivity towards CA IX inhibitor was calculated as the ratio of IC50 values for inhibition of HCA II against the value of IC50 for inhibition CA IX enzyme.

[2] = target: T2, human carbonic anhydrase IX (hCA IX) (Homo sapiens, UniProt Q16790); assay: Colorimetric carbonic anhydrase inhibition assay (CO2 hydration, phenol red), hCA IX; assay type: biochemical; conditions: for IC50: 0° C., HEPES pH 7.0, recombinant extracellular CA domain, read-out: IC50 (hCA IX); for Selectivity to hCA IX IC50 (hCA II)/IC50 (hCA IX): ratio of IC50 values
T2 construct: Construct contained the extracellular CA domain (amino acid residues 139-390) cloned into the pMT/BiP/V5-His vector; His tag (from vector pMT/BiP/V5-His) (C); BiP secretion signal (from vector pMT/BiP/V5-His) (N); made in house; host or cells: Drosophila expression system (Invitrogen), insect cells, secreted into SF 900 II medium
Experimental: as §1, §2, §3

[3] = test system: HCT116 cells; assay: Flow cytometric measurement of intracellular pH (pHi), HCT116 expressing CAIX; assay type: cell-based, human
Experimental: (§4) The effect of carborane CAIX (carbonic anhydrase IX) inhibitors was evaluated on colorectal cancer cell line HCT116 expressing CAIX enzyme versus CA IX negative cell line of T-lymphoblastic leukemia CCRF-CEM. Acetazolamide, a known inhibitor of CAIX, was used as a standard. HCT116/CCRF-CEM cells were cultivated in McCoy/RPMI Media supplemented with 10% FCS and antibiotics and seeded at high density ([…] per 3.5 cm dish) to induce pericellular hypoxia and thus stimulate CA IX expression. Measurement of pHi was assessed as described in Cianchi et al. [Cianchi F., et al. Selective inhibition of carbonic anhydrase IX decreases cell proliferation and induces […] apoptosis in human cancer cells. The Journal of Pharmacology and Experimental Therapeutics, 2010, Vol. 334, No. 3, 710-719].
(§5) […] The pHi was measured by flow cytometry in cell cultures pretreated with 10 μM of pH sensitive probe carboxyseminaphtorhoda-fluor-1-acetoxymethyl ester (SNARF, Invitrogen, CA) for 15 min at 37° C. After incubation, the cells were washed twice with PBS. Because the addition of bicarbonate can affect pHi, all incubation and cell washes were performed in bicarbonate-free buffer. SNARF was excited at 488 nm and emitted at 580 and 640 nm. The ratio of the emission wavelengths at 640/580 nm was then used to estimate the pHi from a calibration curve. The calibration curve was prepared by nigericin clamp technique. In this method, after the SNARF labeling of untreated cells, aliquots of cell suspensions were re-suspended in a high potassium containing buffer at specific pH (usually 6.8, 7.0, 7.2, 7.4, 7.6 and 7.8). The cell suspensions were then clamped at a specific pH value by the addition of 0.03 μM nigericin (Sigma-Aldrich). Nigericin is a ionophore that allows the exchange of H for K ions, thus abolishing the pH gradient across the cell membrane. When the internal and external K concentrations are approximately equal, the pH rapidly equilibrates to the pH of the bathing solution. A total of 20,000 events were acquired on a FACS ARIA II flow cytometer (Becton. Dickinson) for further analysis.
(§6) The fluorescent ratio values (640/580 nm) calculated for each pH point were further used to construct calibration curve in Prism software (GraphPad Software, Inc., San Diego, Calif.), from which the pHi values in treated cells were determined (Table 3).

[4] = test system: CCRF-CEM cells; assay: Flow cytometric measurement of intracellular pH (pHi), CA IX negative CCRF-CEM; assay type: cell-based, human; conditions: 50 μM acetazolamide, 24 hour incubation, control 7.362
Experimental: as §4, §5, §6

Compound | IC50 [1] [µM] | IC50 [2] [µM] | Selectivity to hCA IX IC50 (hCA II)/IC50 (hCA IX) [2] | pHi ([3]; HCT116, 50 μM acetazolamide, 24 hour incubation, control 7.516) | intracellular acidification in HCT116 cells ([3]; carboranes 1 μM versus acetazolamide 50 μM) | pHi [4]
CC(=O)Nc1nnc(S(N)(=O)=O)s1 [acetazolamide, reference compound] | – | – | – | 7.47 | mild intracellular acidification | 7.34
1,1′-bis(3-sulfamoylpropyl)-3,3′-commo-bis(1,2-dicarba-3-cobalta(III)-closo-dodecabor)ate (1-) [CB-25] | 0.04 | 0.004 | 10 | – | – | –
1-ethylenenesulfamide-3,3′-commo-bis(1,2-dicarba-3-cobalta(III)-closo-dodecabor)ate (1-) [CB-30] | 0.57 | 0.0007 | 814 | – | – | –

The remaining compounds from weak to strong by IC50 [1], led by results:

IC50 [1] [µM] | IC50 [2] [µM] | Selectivity to hCA IX IC50 (hCA II)/IC50 (hCA IX) [2] | Compound | pHi ([3]; HCT116, 50 μM acetazolamide, 24 hour incubation, control 7.516) | intracellular acidification in HCT116 cells ([3]; carboranes 1 μM versus acetazolamide 50 μM) | pHi [4]
83.9 | 1.5 | 55.9 | 9-sulfamide-10′-amine-2,2′-commo-(1,7,9-tricarba-1′,7′, 10′-tricarba-2-ferra(H)-closo-dodekabor)ane [CB-11] | – | – | –
3.9 | 0.022 | 177 | 1-propylenesulfamide-3,3′-commo-bis(1,2-dicarba-3-cobalta(III)-closo-dodecabor)ate (1-) [CB-29] | – | – | –
0.4 | 0.38 | 1.05 | 1-(2-sulfonamidethyl)-1,2-dicarba-closo-dodecaborane [CB-23] | – | – | –
0.11 | 0.014 | 7.9 | 1-(3-sulfamoyl-propyl)-3,3′-commo-(decahydro-1,2-dicarba-3-cobalta(III)-undecahydro-1′,2″-dicarba-closo-dodecabor)ate (1-), sodium salt dihydrate [CB-26] | – | – | –
